Source: article PMC3445549, “The Mode of Action of Isocyanide in Three Aquatic Organisms, Balanus amphitrite, Bugula neritina and Danio rerio” (PLoS ONE, 2012)

Biological target: T1, NADH-ubiquinone oxidoreductase (Amphibalanus amphitrite, UniProt A0A6A4V2F0)
T1 construct: gene NDUFV1; native protein from solubilised cyprid lysate; 50 kD band
Assay: affinity pull-down on Affi-gel […] matrix, SDS-PAGE, UPLC-MS/MS
Format: biochemical
Details: isocyanide 2 coupled to matrix via its amine (labelled compound); competed by 0.4 mg/ml free isocyanide 2; cyprid lysate; wash 500 mM NaCl, 1% Triton X100

T1 sequence (A0A6A4V2F0 27-476): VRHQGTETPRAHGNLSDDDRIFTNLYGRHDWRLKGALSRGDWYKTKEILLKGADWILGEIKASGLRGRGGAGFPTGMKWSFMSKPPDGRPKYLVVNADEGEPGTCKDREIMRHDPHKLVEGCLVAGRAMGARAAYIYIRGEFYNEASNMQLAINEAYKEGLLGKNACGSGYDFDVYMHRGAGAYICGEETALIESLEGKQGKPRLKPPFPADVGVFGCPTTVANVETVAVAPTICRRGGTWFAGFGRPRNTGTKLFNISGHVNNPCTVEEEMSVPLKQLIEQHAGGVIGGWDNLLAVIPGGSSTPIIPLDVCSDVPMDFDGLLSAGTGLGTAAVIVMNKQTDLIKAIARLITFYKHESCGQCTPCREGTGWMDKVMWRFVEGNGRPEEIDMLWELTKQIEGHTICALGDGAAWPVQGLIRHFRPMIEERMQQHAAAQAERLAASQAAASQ

[C-]#[N+]C(C)(C)CCCCCCCCCN [compound 2, 10-isocyano-10-methylundecan-1-amine]
affinity pull-down on Affi-gel 10 matrix, SDS-PAGE, UPLC-MS/MS: NADH-ubiquinone oxidoreductase was specifically identified in this protein band (Table S2)
